Experimental data published in the OligoGym collection.
After the bases stand the sugars from the 5' end (letter, count) and the backbone: PS all phosphorothioate, else s phosphorothioate and o phosphodiester by linkage. Methylation of C is not given here. e = 2'-O-(2-methoxyethyl) (MOE); k = constrained ethyl (cEt); d = 2'-deoxy (DNA); m = 2'-O-methyl

Target: HSD17B13
Conditions: ASO, HepaRG

Row | Sequence | target mRNA inhibition (1 µM) | further results
1 | ATTCTGTGGCATGGCT (sugars kkdddddddddkekek, PS) | 55% | –
2 | CAGTAGATTTGGTAGA (sugars k3 d10 k3, PS) | 49% | –
3 | GACATGAGGTTTTGAT (sugars kkdddddddddkekek, PS) | 55% | –
4 | TCTTTTTATAGACTGG (sugars k3 d10 k3, PS) | 82% | target mRNA inhibition (0.02 µM): 0%; target mRNA inhibition (0.078 µM): 0%; target mRNA inhibition (0.313 µM): 35%; target mRNA inhibition (1.25 µM): 55%; target mRNA inhibition (5 µM): 90%
5 | TTGAACAGTCTTAAAC (sugars kkdddddddddkekek, PS) | 37% | –
6 | AGAGGATAGTCCATGC (sugars k3 d10 k3, PS) | 74% | target mRNA inhibition (0.02 µM): 12%; target mRNA inhibition (0.078 µM): 19%; target mRNA inhibition (0.313 µM): 51%; target mRNA inhibition (1.25 µM): 73%; target mRNA inhibition (5 µM): 97%
7 | TTGCAGAAATTCACCT (sugars kkdddddddddkekek, PS) | 46% | –
8 | TCTTAAGGATCATTGC (sugars k3 d10 k3, PS) | 0% | –
9 | TGCATCTTAAGATACC (sugars k3 d9 k3 e1, PS) | 37% | –
10 | ATCTGTCTCCAATACA (sugars k3 d10 k3, PS) | 55% | –
11 | AATTTGTGAACCTGCA (sugars k3 d10 k3, PS) | 20% | –
12 | TATTCTGTGGCATGGC (sugars k3 d10 k3, PS) | 71% | –
13 | CAATTTATTTGCTGGT (sugars k3 d10 k3, PS) | 31% | –
14 | ACAGTCTTAAACCTTC (sugars k3 d10 k3, PS) | 76% | target mRNA inhibition (0.02 µM): 5%; target mRNA inhibition (0.078 µM): 16%; target mRNA inhibition (0.313 µM): 52%; target mRNA inhibition (1.25 µM): 75%; target mRNA inhibition (5 µM): 80%
15 | CTATAGTAATCACAAG (sugars k3 d10 k3, PS) | 35% | –
16 | AGACAGTTGAGTAGTG (sugars k3 d10 k3, PS) | 63% | –
17 | CAGCATTGATTCGAAA (sugars k3 d1 m1 d8 k3, PS) | 37% | –
18 | ACTCCGTTATAAGTTT (sugars k3 d10 k3, PS) | 42% | –
19 | TAGGATGTTGACCTCA (sugars k3 d10 k3, PS) | 19% | –
20 | TTTTATTGGGCCCAAT (sugars k3 d10 k3, PS) | 18% | –
21 | TAAGATACCCAGGTTG (sugars kkdddddddddkekek, PS) | 30% | –
22 | GAGGGTCCACTTTTGG (sugars k3 d10 k3, PS) | 23% | –
23 | CTTATACTGAAGGCTG (sugars k3 d10 k3, PS) | 48% | –

Row | Sequence | target mRNA inhibition (1 µM) | further results
24 | AGTCTTAAACCTTCCC (sugars k3 d10 k3, PS) | 77% | target mRNA inhibition (0.02 µM): 0%; target mRNA inhibition (0.078 µM): 0%; target mRNA inhibition (0.313 µM): 21%; target mRNA inhibition (1.25 µM): 65%; target mRNA inhibition (5 µM): 85%
25 | GAATAGAGTTGCACCG (sugars k3 d10 k3, PS) | 55% | –
26 | CATCTCTGGGACCAAG (sugars kkdddddddddkekek, PS) | 44% | –
27 | ATTGGTAAGTATTCCA (sugars k3 d10 k3, PS) | 50% | –
28 | AGTAGTGTAAGCTGAG (sugars k3 d10 k3, PS) | 88% | target mRNA inhibition (0.02 µM): 0%; target mRNA inhibition (0.078 µM): 4%; target mRNA inhibition (0.313 µM): 50%; target mRNA inhibition (1.25 µM): 78%; target mRNA inhibition (5 µM): 92%
29 | AGGCTGTAAGAGTCAG (sugars k3 d10 k3, PS) | 74% | –
30 | CCATCTATCAGACTTC (sugars kkdddddddddkekek, PS) | 52% | –
31 | GTGTUCTTGTTGATAT (sugars k3 d1 m1 d8 k3, PS) | 52% | –
32 | CCAAGGCCTGAAGTTC (sugars k3 d10 k3, PS) | 20% | –
33 | GTCGGTCACCTTTCAT (sugars k3 d1 m1 d8 k3, PS) | 66% | –
34 | GGATACCTGAAAAGCC (sugars k3 d10 k3, PS) | 68% | target mRNA inhibition (0.02 µM): 2%; target mRNA inhibition (0.078 µM): 0%; target mRNA inhibition (0.313 µM): 38%; target mRNA inhibition (1.25 µM): 69%; target mRNA inhibition (5 µM): 77%
35 | TTGACTGCTGCTAGTG (sugars k3 d1 m1 d8 k3, PS) | 40% | –
36 | TAAACCTTCCCTGTGT (sugars kkdddddddddkekek, PS) | 9% | –
37 | GCTGTAAGAGTCAGTA (sugars k3 d10 k3, PS) | 89% | target mRNA inhibition (0.02 µM): 5%; target mRNA inhibition (0.078 µM): 0%; target mRNA inhibition (0.313 µM): 2%; target mRNA inhibition (1.25 µM): 57%; target mRNA inhibition (5 µM): 82%
38 | CTGTAATTGGCTCTTG (sugars k3 d10 k3, PS) | 28% | –
39 | GTGATTGAGTTCTCCA (sugars k3 d10 k3, PS) | 80% | target mRNA inhibition (0.02 µM): 10%; target mRNA inhibition (0.078 µM): 14%; target mRNA inhibition (0.313 µM): 32%; target mRNA inhibition (1.25 µM): 73%; target mRNA inhibition (5 µM): 83%
40 | CTATAATACATTAGCA (sugars k3 d10 k3, PS) | 3% | –
41 | ACTCTAAATACCCTTG (sugars k3 d10 k3, PS) | 16% | –
42 | TCTAAGTTAGCCCCCA (sugars k3 d1 m1 d8 k3, PS) | 7% | –
43 | GTTTCTTATGTAATAG (sugars k3 d10 k3, PS) | 46% | –
44 | CATAACTACTTCAGTT (sugars k3 d10 k3, PS) | 3% | –
45 | GAGACATGAGGTTTTG (sugars k3 d1 m1 d8 k3, PS) | 61% | –
46 | ATCATATGCTAAGTGC (sugars k3 d10 k3, PS) | 73% | target mRNA inhibition (0.02 µM): 0%; target mRNA inhibition (0.078 µM): 11%; target mRNA inhibition (0.313 µM): 48%; target mRNA inhibition (1.25 µM): 71%; target mRNA inhibition (5 µM): 82%

Row | Sequence | target mRNA inhibition (1 µM) | further results
47 | CACTAATCTCAGTACT (sugars k3 d10 k3, PS) | 48% | –
48 | GTTTGACTGCTGCTAG (sugars k3 d10 k3, PS) | 58% | –
49 | CAACGACTCCAAGTAG (sugars k3 d10 k3, PS) | 0% | –
50 | AGAGTTATCTGGTTTG (sugars k3 d10 k3, PS) | 56% | –
51 | GATATTATGTTCTTGG (sugars k3 d10 k3, PS) | 59% | –
52 | GTCCTAGGATGTTGAC (sugars k3 d10 k3, PS) | 1% | –
53 | TGATGTAGTGGGAGTC (sugars k3 d9 k3 e1, PS) | – | target mRNA inhibition (0.02 µM): 5%; target mRNA inhibition (0.078 µM): 0%; target mRNA inhibition (0.313 µM): 36%; target mRNA inhibition (1.25 µM): 62%; target mRNA inhibition (5 µM): 74%
54 | GATTGGAATGCTACTT (sugars kkkddddkddddkkke, PS) | 59% | –
55 | AAACTAGGAAGTGATC (sugars k3 d10 k3, PS) | 39% | –
56 | TTTAAAATAGAGTCGG (sugars k3 d9 k3 e1, PS) | 58% | –
57 | GCAGAGACATGAGGTT (sugars k3 d10 k3, PS) | 55% | –
58 | GGCTGGATATACTGTC (sugars k3 d10 k3, PS) | 18% | –
59 | TATTGGTAAGTATTCC (sugars kkdddddddddkekek, PS) | 36% | –
60 | GCCAAGGGAACACTGT (sugars k3 d10 k3, PS) | 61% | –
61 | AAATGAGGCGGCACTC (sugars k3 d10 k3, PS) | 20% | –
62 | TTCTATTAGTTGGCCT (sugars k3 d10 k3, PS) | 28% | –
63 | ACAGAGGAGTTTGCAG (sugars k3 d10 k3, PS) | 37% | –
64 | CAGAAGTATGTGAACT (sugars k3 d10 k3, PS) | 22% | –
65 | CGCTACTGTAGGCTAA (sugars k3 d10 k3, PS) | 68% | –
66 | AACTAGGAAGTGATCC (sugars k3 d10 k3, PS) | 58% | –
67 | GATGCTAAAAGCTCAC (sugars k3 d10 k3, PS) | 46% | –
68 | CTGCATTAATGCCACC (sugars k3 d1 m1 d8 k3, PS) | 52% | –
69 | AGTCGGATTATTTTTT (sugars k3 d10 k3, PS) | 42% | –

Row | Sequence | target mRNA inhibition (1 µM) | further results
70 | ATTGTTTAGCTGATAG (sugars k3 d10 k3, PS) | 61% | –
71 | ACCGTTTTGGGCTAAT (sugars k3 d10 k3, PS) | 78% | target mRNA inhibition (0.02 µM): 0%; target mRNA inhibition (0.078 µM): 0%; target mRNA inhibition (0.313 µM): 45%; target mRNA inhibition (1.25 µM): 81%; target mRNA inhibition (5 µM): 95%
72 | CACTAAAGGTTTCTGT (sugars k3 d10 k3, PS) | 56% | –
73 | TTTTAAGAGGCATGAA (sugars k3 d10 k3, PS) | 53% | –
74 | ATTTATTTGCTGGTCC (sugars k3 d10 k3, PS) | 47% | –
75 | CAGAUTGGAATGCTAC (sugars k3 d1 m1 d8 k3, PS) | 70% | target mRNA inhibition (0.02 µM): 7%; target mRNA inhibition (0.078 µM): 25%; target mRNA inhibition (0.313 µM): 42%; target mRNA inhibition (1.25 µM): 56%; target mRNA inhibition (5 µM): 82%
76 | AGTCATATTGAAAATC (sugars k3 d10 k3, PS) | 39% | –
77 | ATAATAGCTCTATTGG (sugars k3 d10 k3, PS) | 46% | –
78 | CAGAGACATGAGGTTT (sugars k3 d9 k3 e1, PS) | 45% | –
79 | TAAGGCAAAGATCTGG (sugars k3 d10 k3, PS) | 46% | –
80 | GTTTAGCTGATAGGCT (sugars k3 d10 k3, PS) | 47% | –
81 | TAGAATACGCTGAGAG (sugars k3 d10 k3, PS) | 47% | –
82 | GTGGCCGCACACTGAA (sugars k3 d10 k3, PS) | 41% | –
83 | GACGATGTGGCCATGA (sugars k3 d10 k3, PS) | 42% | –
84 | GGAAGATTAATCATAA (sugars k3 d10 k3, PS) | 32% | –
85 | TTGCAGAAATTCACCT (sugars k3 d1 m1 d8 k3, PS) | 29% | –
86 | AGTGCATCTTAAGATA (sugars kkdddddddddkekek, PS) | 27% | –
87 | CTAGGAAGTGATCCAT (sugars k3 d10 k3, PS) | 66% | –
88 | TGTGATTGAGTTCTCC (sugars k3 d9 k3 e1, PS) | 52% | –
89 | ACAGTCTTAAACCTTC (sugars kkdddddddddkekek, PS) | 46% | –
